The values that follow come from patent US20040077656A1, “Quinolines and nitrogenated derivatives thereof substituted in 4-position by a piperazine-containing moiety and their use as antibacterial agents” (priority 2000, published 2004).

This assay concerns S. aureus Oxford, S. aureus WCUH29, S. pneumoniae 1629, S. pneumoniae N1387, S. pneumoniae ERY 2. In words: MIC of test compounds against various organisms. The class given is cell-based. How it is done: The MIC (μg/ml) of test compounds against various organisms was determined: S. aureus Oxford, S. aureus WCUH29, S. pneumoniae 1629, S. pneumoniae N1387, S. pneumoniae ERY 2.

Structures can show the parent of a compound that is named as a salt. Where two headings read alike, the source gives them in different places.

As to `COc1ccc2nccc([C@@H](O)CN3CCN(CCCCc4ccccc4)CC3)c2c1` [Example 12, (R)-1-(6-Methoxy-quinolin-4-yl)-2-[4-(4-phenyl-butyl)piperazin-1-yl]-ethanol Dioxalate], the MIC (in general, the smallest concentration in the dilution series that meets the test's criterion for growth inhibition) was under 1 µg/mL.
On to `COc1ccc2nccc([C@@H](O)CN3CCN(CCNC(=O)c4cccs4)CC3)c2c1` [Example 7, Thiophene-2-carboxylic acid (2-{14[(R)-2-hydroxy-2-(6-methoxy-quinolin-4-yl)-ethyl]-piperazin-1-yl}-ethyl)-amide Dioxalate Salt], for which the MIC (against one or more of S. aureus Oxford, S. aureus WCUH29, S. pneumoniae 1629, S. pneumoniae N1387, S. pneumoniae ERY 2, read-out: MIC) was under 1 µg/mL.
